Measurements as given in patent US5521173A, “Tricyclic benzazepine vasopressin antagonists” (American Home Products Corporation, priority 1995, dated 1996).

Experiments:
[1] = target: T1, Vasopressin V1 receptor subtype in Human Platelet Membranes (Homo sapiens, UniProt P37288); assay: Binding to Vasopressin V1 receptor subtype in Human Platelet Membranes
T1 construct: tissue Hudson Valley Blood Services, Westchester Medical Center, Valhalla, N.Y; host or cells: human platelets (frozen platelet rich plasma)
Description: Radioligand Binding Experiments with Human Platelet Membranes
(a) Platelet Membrane Preparation
Frozen platelet rich plasma (PRP), (Platelet Source: Hudson Valley Blood Services, Westchester Medical Center, Valhalla, N.Y.) are thawed to room temperature. The tubes containing the PRP are centrifuged at 16,000×g for 10 min. at 4° C. and the supernatant fluid discarded. The platelets resuspended in an equal volume of 50.0 mM Tris.HCl, pH 7.5 containing 120 mM NaCl and 20.0 mM EDTA. The suspension is recentrifuged at 16,000× g for 10 min. This washing step is repeated one more time. The wash discarded and the lysed pellets homogenized in low ionic strength buffer of Tris.HCl, 5.0 mM, pH 7.5 containing 5.0 mM EDTA. The homogenate is centrifuged at 39,000× g for 10 min. The resulting pellet is resuspended in Tris.HCl buffer, 70.0 mM, pH 7.5 and recentrifuged at 39,000× g for 10 min. The final pellet is resuspended in 50.0 mM Tris.HCl buffer pH 7.4 containing 120 mM NaCl and 5.0 mM KCl to give 1.0-2.0 mg protein per ml of suspension.
(b) Binding to Vasopressin V1 receptor subtype in Human Platelet Membranes
In wells of a 96 well format microtiter plate, add 100 μl of 50.0 mM Tris.HCl buffer containing 0.2% BSA and a mixture of protease inhibitors (aprotinin, leupeptin etc.). Then add 20 μl of [^3 H]Ligand (Manning or Arg^8 Vasopressin), to give final concentrations ranging from 0.01 to 10.0 nM. Initiate the binding by adding 80.0 μl of platelet suspension (approx. 100 μg protein). Mix all reagents by pipetting the mixture up and down a few times. Non specific binding is measured in the presence of 1.0 µM of unlabeled ligand (Manning or Arg^8 Vasopressin). Let the mixture stand undisturbed at room temperature for ninety (90) min. Upon this time, rapidly filter off the incubate under vacuum suction over GF/B filters, using a Brandel Harvester. Determine the radioactivity caught on the filter disks by the addition of liquid scintillant and counting in a liquid scintillator.

[2] = target: T2, Human V2 Vasopressin Receptor (Homo sapiens, UniProt P30518); assay: Binding to Membranes of Mouse Fibroblast Cell Line (LV-2) Transfected with the cDNA Expressing the Human V2 Vasopressin Receptor; settings: ** LV-2 cell membranes
T2 construct: expressed in transfected cells; host or cells: mouse fibroblast cell line LV-2
Description: (a) Membrane Preparation Flasks of 175 ml capacity, containing attached cells grown to confluence, are cleared of culture medium by aspiration. […] The content of all flasks is poured into a centrifuge tube and the cells pelleted at 300× g for 15 min. The Hank's based solution is aspirated off and the cells homogenized with a polytron at setting #6 for 10 sec in 10.0 mM Tris.HCl buffer, pH 7.4 containing 0.25M sucrose and 1.0 mM EDTA. The homogenate is centrifuged at 1500× g for 10 min to remove ghost membranes. The supernatant fluid is centrifuged at 100,000× g for 60 min to pellet the receptor protein. […] (b) Receptor Binding […] Non specific binding is assessed in the presence of 1.0 μM of unlabeled ligand, added in 20 μl volume. […] The radioactivity trapped on the filter disk by the ligand-receptor complex is assessed by liquid scintillation counting in a Packard LS Counter, with an efficiency of 65% for tritium. The data are analyzed for IC50 values by the LUNDON-2 program for competition (LUNDON SOFTWARE, Ohio).

Vasopressin V1 = Vasopressin V1 Antagonist Activity in Conscious Rats (vasopressin vasopressor response); assay type: in vivo, rat; settings: 10 mg/kg iv; for Max % Inhibition: vasopressin vasopressor response
Description: Vasopressin V1 Antagonist Activity in Conscious Rats Conscious rats are restrained in a supine position with elastic tape. The area at the base of the tail is locally anesthetized by subcutaneous in filtration with 2% procaine (0.2 ml). Using aseptic technique the ventral caudal tail artery is isolated and a cannula made of PE 10 and 20 (heat-fused) tubing is passed into the lower abdominal aorta. The cannula is secured, heparinized (1000 i.u./cc), sealed and the wound closed with one or two stitches of Dexon 4-0. The caudal vein is also cannulated in the same manner for intravenous drug administration. The duration of the surgery is approximately 5 minutes. Additional local anesthesia (2% procaine or lidocaine) is provided as needed. The animals are placed in plastic restraining cages in an upright position. The cannula is attached to a Statham P23Db pressure transducer and pulsatile blood pressure is recorded. […] Percentage of antagonism by the compound is calculated using the pre-drug vasopressin vasopressor response as 100%. The results of this test on representative compounds of this invention in which the dose, the maximum % inhibition and the time in minutes, are shown in Table III.

T1 sequence (P37288 whole entry): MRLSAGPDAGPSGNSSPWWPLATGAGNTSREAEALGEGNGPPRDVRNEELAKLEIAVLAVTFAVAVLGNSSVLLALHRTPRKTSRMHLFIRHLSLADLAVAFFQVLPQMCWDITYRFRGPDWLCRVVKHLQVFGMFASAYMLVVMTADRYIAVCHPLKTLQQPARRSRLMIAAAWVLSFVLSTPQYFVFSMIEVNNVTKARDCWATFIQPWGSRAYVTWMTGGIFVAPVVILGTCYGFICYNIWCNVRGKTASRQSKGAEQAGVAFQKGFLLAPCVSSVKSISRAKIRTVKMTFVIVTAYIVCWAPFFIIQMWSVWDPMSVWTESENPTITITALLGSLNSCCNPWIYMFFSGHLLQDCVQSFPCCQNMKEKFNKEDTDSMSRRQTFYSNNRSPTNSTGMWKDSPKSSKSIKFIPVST
T2 sequence (P30518 whole entry): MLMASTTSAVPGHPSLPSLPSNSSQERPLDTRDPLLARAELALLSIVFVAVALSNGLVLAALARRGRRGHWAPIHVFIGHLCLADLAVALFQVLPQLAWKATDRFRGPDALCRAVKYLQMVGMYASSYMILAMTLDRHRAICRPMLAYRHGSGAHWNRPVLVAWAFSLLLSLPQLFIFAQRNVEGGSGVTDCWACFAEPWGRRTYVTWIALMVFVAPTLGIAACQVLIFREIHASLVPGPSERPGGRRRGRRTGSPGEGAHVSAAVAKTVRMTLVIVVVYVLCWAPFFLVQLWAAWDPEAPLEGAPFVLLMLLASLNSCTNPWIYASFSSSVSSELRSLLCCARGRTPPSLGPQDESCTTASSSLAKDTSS

Structure (SMILES) | IC50 [1] [nM] | IC50 [2] [nM] | Time (of maximum % inhibition) (Vasopressin V1) [min] | Max % Inhibition (Vasopressin V1) [%]
O=C(c1ccc(-c2ccccc2)cc1)N1Cc2cccn2Cc2ccccc21 [Example 19, 10-([1,1'-Biphenyl]-4-ylcarbonyl)-10,11-dihydro-5H-pyrrolo[2,1-c][1,4]benzodiazepine] | 2.9 | 390 | 30 | 60
O=C(c1ccc(-c2cc(F)cc(F)c2)cc1)N1Cc2cccn2Cc2ccccc21 [Example 3, 10,11-Dihydro-10-[4-(3,5-difluorophenyl)benzoyl]-5H-pyrrolo[2,1-c][1,4]benzodiazepine] | 85 | 2500 | 30 | 92
O=C(c1ccc(-c2ccccc2)cc1)N1Cc2ccnn2Cc2ccccc21 [Example 7, 5-([1,1'-Biphenyl]-4-ylcarbonyl)-5,10-dihydro-4H-pyrazolo[5,1-c][1,4]benzodiazepine] | 14 | 1700 | 30 | 90
O=C(c1ccc(-c2ccccn2)cc1)N1Cc2cccn2Cc2ccccc21 [Example 9, 10,11-Dihydro-10-[4-(2-pyridinyl)benzoyl]-5H-pyrrolo[2,1-c][1,4]benzodiazepine] | – | – | 30 | 70
